Results reported in patent publication US20220184162A1, “PREPARATIONS CONTAINING BERRY EXTRACTS FOR USE IN TREATING CANCER” (Evonik Operations GmbH, priority 2019, published 2022).

Assays:
activated PBMCs = test: Influence on proliferation of activated PBMCs (anti-CD3/anti-CD28, IL-2; CellTrace CFSE); type: cell-based, human; conditions: for Median Fluorescence Day 2 Average / Median Fluorescence Day 3 Average: CellTrace CFSE, activated PBMCs, 100 U/ml IL-2; for proliferation of activated PBMCs on day 3 (in words): versus water, maltodextrin or solvent control
Text: (§1) Upon recognition of a foreign substance (foreign peptide presented on MHC) by the T cell receptor (TCR) and stimulation of the co-receptor CD28 the T cells start to proliferate. Thus, proliferation is a clear indication of T cell activation. Another classic activation marker for T cells is CD25, the high affinity receptor for the interleukin IL-2. This protein is not expressed by resting T cells and transcription is induced by TCR signaling. Thus, the presence of CD25 on the surface of T cells is a clear indicator of T cell activation. On the contrary, T cell exhaustion correlates with the signaling-induced expression of PD-1 on the surface of the T cells. To test the impact of substances on T cell activation, proliferation as well as CD25 and PD-1 upregulation, are used as readouts. Primary human Peripheral blood mononuclear cells (PBMCs) isolated from the blood of healthy donors (including primary T-cells) were used. PBMC cells represent a heterogenic population with 45-80% T cells, 5-20% B cells, 10-25% monocytes and 5-20% NK cells.
(§2) CellTrace™ stock solution was prepared according to the manual; addition of 15 μL DMSO to the CellTrace™ reagent and mixed well. Cell suspension was adjusted to 10^6 cells/mL in RPMI without FBS before addition of 1 μL CellTrace™ stock solution to each mL of cell suspension. After 20 minutes incubation (protected from light) of the cells at room temperature, five times the volume of culture medium was added and then again incubated for 5 min at room temperature. Afterwards the cells were centrifuged (300×g for 5 min) and the pellet resuspended in fresh culture medium. As last step the cells were incubated at 37° C. with 5% CO2 for 1-2 hours before the set-up of the experiment.
(§3) Following CFSE labelling and recovering at 37° C. with 5% CO2, cells were mixed with the extract as follows: 20 μL of extract were placed in a 96-well u-bottom culture plate as triplicates, then 180 μL cell suspension was added on top and mixed. Final concentration of the cells was 5*10^4 cells/well (=2.5*10^5 cells/mL).
(§4) Sample format: 96 well with 200 μL/well and 10,000 events measured per sample. FACS (fluorescence activated cell sorting) gating was performed via SSC (sideward scatter) versus FSC (forward scatter) density blot. A gate has been applied to identify viable cells. Percentage of viable cells was determined for all samples of a 96-well plate.
(§5) CellTrace™ CFSE median fluorescence (488 nm excitation and a 530/30 nm bandpass emission filter): From viable cell population single cells were determined and viable, single cells within the gate defined in a histogram to evaluate the level of fluorescence intensity of cells labelled with CellTrace™ CFSE. Cell proliferation was followed for 7 days. With increasing level of proliferation median fluorescence decreases, shown as shift of peak from right to left within the flow cytometer; non-labeled cells shown on the far-left side. Median fluorescence was determined as read-out. Earliest observable influence on proliferation and activation was expected after 3 days of incubation with the test compounds.
PBMCs isolated from blood were activated for 2 days on an activating surface with anti-CD3 (UCHT1) and anti-CD28. Activated PBMCs were then induced to proliferate by adding 1000 U/ml IL-2. Therefore, the cells were transferred to a new dish without activating antibodies and 2 days later the activated cells were used to set up the experiment. 40*10^6 cells were used for CFSE staining and cultured with extracts in RPMI 1640 with 10% FBS, 1% HEPS (10 mM), 0.1% β-mecaptoethanol (50 μM), 0.5% Pen/Strep and 100 U/ml IL-2.
(§6) Water, DMSO or DMF were used as negative control; UCHT1 (anti-CD3) antibody as positive control. The samples plate set-up was used as follows:
(§7) Half medium change with fresh extracts of final concentration was done every day.
In the next experiment the effect of the test compounds on the proliferation of activated PBMCs was evaluated. […]

[1] = tested on: isolated PBMCs (non-activated); test: Activating effect on isolated non-activated PBMCs (CellTrace CFSE proliferation, flow cytometry); type: cell-based, human; conditions: for Median Fluorescence Day 7 Average / Median Fluorescence Day 2 Average: CellTrace CFSE; for Median Fluorescence Day 2 Average: no activation stimulus
Text: as §1, §2, §3, §4, §5
All cells (40*10^6) of one vial of frozen PBMC's (non-activated) were used for CFSE staining and cultured with extracts as follows: Day 0-3 in RPMI 1640 with 10% FBS, 1% HEPS (10 mM); day 3-7 in RPMI 1640 with 10% FBS, 1% HEPS (10 mM) and 100 U/mL IL-2.
as §6, §7
To evaluate, if the chosen test compounds could have an activating effect on isolated PBMCs (Peripheral Blood Mononuclear Cells) and induce them to proliferate, PBMCs were incubated together with the test compounds in different concentrations. […]

[2] = tested on: CD4+ T cells in activated PBMCs; test: Analysis of T cell populations via flow cytometry, CD4+; type: cell-based, human; conditions: FIG. 7
Procedure: (§8) Sample preparation and plate set-up was used as described before in the T cell activation assay. Primary PBMCs were seeded on activating surface (anti-CD3, anti-CD28) with medium containing 1000 U/ml IL-2 for 2 days. The activated PBMCs were then cultured with the prepared sample concentrations in medium containing 100 U/ml IL-2 every day from day 3 on after isolation. Half medium change with fresh samples and flow cytometry measurement was performed every day. All cells for flow cytometry were labelled with an antibody mixture containing Annexin V_Alexa594, anti-CD4_APC and anti-CD8_PE for CD-marker as well as live-dead staining.
(§9) PBMS were activated by using an activating surface and the addition of Interleukin-2 to the cell culture media. The activated PBMCs, which contain T-cells as the most prominent cell type, were treated with the berry extracts or the anthocyanins from day 3 on after isolation. To evaluate the different T cell population flow cytometry analysis were performed with anti-CD4 and anti-CD8 antibodies in combination with Annexin V staining as live-dead-staining.

[3] = tested on: CD8+ T cells in activated PBMCs; test: Analysis of T cell populations via flow cytometry, CD8+; type: cell-based, human; conditions: FIG. 6
Procedure: as §8, §9

[4] = tested on: Jurkat cells (T cell leukemia); test: Cell viability (Cell Titer Glo, ATP luminescence); type: cell-based; conditions: increasing concentrations; FIG. 8A, FIG. 9
Procedure: Similar cell viability assays were performed with additional cell lines (HeLa, Jurkat, Mt4 and THP-1) and using the Cell Titer Glo Assay. In order to further evaluate the effect of Healthberry® 865 on T cell populations and specifically the CD4+ populations, additional cell viability analysis was performed. On the basis that Healthberry® 865 has an influence on the CD4+ cell populations and additionally on the activation status of T cells, specifically T cell leukemia/lymphoma cell lines as Jurkat (T cell leukemia) and Mt4 (HTLV-I positive; human T-cell lymphotropic virus type I retrovirus causes adult T-cell leukemia-lymphoma) cells were chosen as in vitro models. Furthermore, control cell lines were chosen, which are not CD4^+ such as HeLa cells (epithelial cervix carcinoma) or which represent another type of leukemia such as THP-1 (acute monocytic leukemia). […] Cell viability tests were performed with the T cell leukemia cell lines Jurkat (FIG. 8A) and Mt4 (FIG. 8B) as well as with control cell lines such as the CD4 negative cervix carcinoma cell line HeLa (FIG. 8C) and the monocytic leukemia cell line THP 1 (FIG. 8D). Cell viability was evaluated based on ATP amount and via luminescence measurement. Samples were tested in triplicates.

SMILES	Median Fluorescence Day 2 Average (activated PBMCs; 15 μg/mL)	Median Fluorescence Day 3 Average (activated PBMCs; 15 μg/mL)	Median Fluorescence Day 2 Average (activated PBMCs; 30 μg/mL)	Median Fluorescence Day 3 Average (activated PBMCs; 30 μg/mL)	Median Fluorescence Day 2 Average (activated PBMCs; 75 μg/mL)	Median Fluorescence Day 3 Average (activated PBMCs; 75 μg/mL)	proliferation of activated PBMCs on day 3 (in words) (activated PBMCs)	Median Fluorescence Day 7 Average ([1]; 15 μg/mL, IL-2 from day 3)	Median Fluorescence Day 2 Average ([1]; 15 μg/mL)	Median Fluorescence Day 7 Average ([1]; 30 μg/mL, IL-2 from day 3)	Median Fluorescence Day 2 Average ([1]; 30 μg/mL)	Median Fluorescence Day 7 Average ([1]; 75 μg/mL, IL-2 from day 3)	Median Fluorescence Day 2 Average ([1]; 75 μg/mL)	further results
C[C@@H]1O[C@@H](OC[C@H]2O[C@@H](Oc3cc4c(O)cc(O)cc4[o+]c3-c3cc(O)c(O)c(O)c3)[C@H](O)[C@@H](O)[C@@H]2O)[C@H](O)[C@H](O)[C@H]1O [D3R, delphinidin 3-rutinoside]	14407	6602	15685	8150	19716	13927	dose-dependent and significant decrease of proliferation	20821	34772	25171	34646	44248	37453	activation / proliferation of non-activated PBMCs (in words) ([1]; 2 days up to 7 days incubation, IL-2 from day 3): slight decrease of proliferation; change of CD4+ T cells in comparison to controls [2]: most significant effects; change of CD8+ T cells in comparison to controls [3]: most significant effects
CC1=C(/C=C/C(C)=C/C=C/C(C)=C/C=C/C=C(C)/C=C/C=C(C)/C=C/C2=C(C)C(=O)[C@@H](O)CC2(C)C)C(C)(C)C[C@H](O)C1=O [Astaxanthin, reference compound]	–	–	–	–	–	–	slower proliferation	–	–	–	–	–	–	Median Fluorescence Day 2 Average (activated PBMCs; 2 μg/mL): 14190; Median Fluorescence Day 3 Average (activated PBMCs; 2 μg/mL): 6502; Median Fluorescence Day 2 Average (activated PBMCs; 4 μg/mL): 15365; Median Fluorescence Day 3 Average (activated PBMCs; 4 μg/mL): 10055; Median Fluorescence Day 2 Average (activated PBMCs; 10 μg/mL): 19750; Median Fluorescence Day 3 Average (activated PBMCs; 10 μg/mL): 15342; Median Fluorescence Day 7 Average ([1]; 2 μg/mL, IL-2 from day 3): 20201; Median Fluorescence Day 2 Average ([1]; 2 μg/mL): 33336; Median Fluorescence Day 7 Average ([1]; 4 μg/mL, IL-2 from day 3): 19444; Median Fluorescence Day 2 Average ([1]; 4 μg/mL): 32336; Median Fluorescence Day 7 Average ([1]; 10 μg/mL, IL-2 from day 3): 16442; Median Fluorescence Day 2 Average ([1]; 10 μg/mL): 36178
OC[C@H]1O[C@@H](Oc2cc3c(O)cc(O)cc3[o+]c2-c2cc(O)c(O)c(O)c2)[C@H](O)[C@@H](O)[C@@H]1O [D3G, Delphinidin 3-glucoside]	–	–	–	–	–	–	–	–	–	–	–	–	–	cell viability (ATP amount, luminescence) [4]: specific reduction
C[C@@H]1O[C@@H](OC[C@H]2O[C@@H](Oc3cc4c(O)cc(O)cc4[o+]c3-c3ccc(O)c(O)c3)[C@H](O)[C@@H](O)[C@@H]2O)[C@H](O)[C@H](O)[C@H]1O [C3R, cyanidin 3-rutinoside]	14630	6153	15317	7228	17032	11086	dose-dependent and significant decrease of proliferation	21030	33603	21539	33737	22855	34486	–
